US20020095030A1, “FLIP GENES AND FLIP PROTEINS” (priority 1997, published 2002)
Peptide text beside a SMILES is read from it. * marks the point of attachment. Cbz = O=C(OCc1ccccc1)*; CH2F = FC*

Tested on: 293T-cells
Assay: Apoptosis by over-expression of TRAMP in 293T cells (Cell Death Detection ELISA)
Type: cell-based, human
Settings: 25 μM in medium

Structure (SMILES): COC(=O)C[C@H](NC(=O)[C@H](C)NC(=O)[C@@H](NC(=O)OCc1ccccc1)C(C)C)C(=O)CF [z-VAD-fmk] (Cbz-Val-Ala-Asp(OMe)-CH2F)
- protection of TRAMP over expressing cells: 100%
